In ChEMBL document CHEMBL3632499, “Synthesis and Antiproliferative Activity Evaluation of the Disulfide-Containing Cyclic Peptide Thiochondrilline C and Derivatives” (J Nat Prod, 2015) one finds inhibition of growth and EC50 data, which are given here for four compounds.

Each structure is given as a SMILES string. Positions of bridges follow the written chain, without caps; N, C: chain ends. Non-standard residues stand in square brackets, D forms with d. Residues, ends and D or L forms follow the SMILES beside them. Chains are numbered I, II in the order given. *: point of attachment. Quinaldoyl(3-OH) = O=C(c1nc2ccccc2cc1O)*; NMeC = CN[C@@H](CS)C(=O)O

Assay [1] has as its system A549. In words: Antiproliferative activity against human A549 cells assessed as growth inhibition at 10 uM. Format: functional. The conditions noted are these: read-out: GI.
In assay [2] the test system is A549. In words: Cytotoxicity against human A549 cells. Format: functional, cell-based.

`CN1C(=O)CNC(=O)[C@H](NC(=O)c2nc3ccccc3cc2O)CSSC[C@H]1C(=O)O`: in the assay with A549 [1], the inhibition of growth at 10 µM is below 30%.

As to `COC(=O)[C@H](C)N(C)C(=O)[C@@H]1CSSC[C@@H](NC(=O)c2nc3ccccc3cc2O)C(=O)NCC(=O)N1C`, in the assay on A549 [1], the inhibition of growth at 10 µM is below 30%. `COC(=O)[C@H](CSC)N(C)C(=O)[C@@H]1CSSC[C@@H](NC(=O)c2nc3ccccc3cc2O)C(=O)NCC(=O)N1C` ({Quinaldoyl(3-OH)}-[dC]G[NMeC][NMeC](Me)-OMe; disulfide 1-3) showed an EC50 in the assay with A549 [2] of 2.9 µM. For `CSC[C@H]1C(=O)SC[C@@H](NC(=O)c2nc3ccccc3cc2O)C(=O)NCC(=O)N(C)[C@H]2CSSC[C@@H](C(=O)N1C)N(C)C(=O)CNC(=O)[C@H](NC(=O)c1nc3ccccc3cc1O)CSC(=O)[C@H](CSC)N(C)C2=O` [THIOCORALINE A] (I: {Quinaldoyl(3-OH)}-[dC]G[NMeC][NMeC](Me) / II: {Quinaldoyl(3-OH)}-[dC]G[NMeC][NMeC](Me); thioester I:1-II:C, I:C-II:1; disulfide I:3-II:3), in the assay on A549 [2], the midpoint of the response, the EC50, lay at 0.01 µM.

In general, EC50 refers to the concentration that produces a half-maximal response. A higher EC50 goes with a less potent agent.
